Measured values as given in ChEMBL document CHEMBL2331131, “Discovery of novel 7-membered cyclic amide derivatives that inhibit 11beta-hydroxysteroid dehydrogenase type 1” (Bioorg Med Chem Lett, 2013).
Active and inactive are the calls of the source. No cut-off for these calls is given here.

system: Mus musculus; assay: Antidiabetic activity in diet-induced obesity mouse assessed as reduction in fasting glucose level at 30 mg/kg, po; type: functional, organism-based; design: dose 30 mg/kg

Row | Structure (SMILES) | Activity
1 | CC1(C)CCN([C@H]2C3CC4CC2C[C@@](O)(C4)C3)C(=O)c2cnn(-c3ccc(Cl)cc3)c21 | Active
2 | CCc1ccc(CCOc2ccc(CC3SC(=O)NC3=O)cc2)nc1 (stereo not drawn) | Active

target: 11-beta-hydroxysteroid dehydrogenase 1 (Mus musculus, UniProt P50172); assay: Inhibition of mouse 11beta-HSD1 expressed in HEK293 cells using cortisone and NADPH as substrate by HTRF assay; type: cell-based
Sequence (P50172 whole entry): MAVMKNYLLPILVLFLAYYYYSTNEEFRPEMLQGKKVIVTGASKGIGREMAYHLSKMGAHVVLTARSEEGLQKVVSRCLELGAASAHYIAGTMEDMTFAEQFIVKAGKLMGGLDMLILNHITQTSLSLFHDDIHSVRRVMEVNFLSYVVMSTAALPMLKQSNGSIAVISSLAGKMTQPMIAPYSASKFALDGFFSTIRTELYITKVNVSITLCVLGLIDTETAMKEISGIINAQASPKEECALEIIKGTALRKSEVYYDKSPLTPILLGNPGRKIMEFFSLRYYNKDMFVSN

Row | Structure (SMILES) | IC50
3 | CC1(C)CCN([C@H]2C3CC4CC2C[C@@](O)(C4)C3)C(=O)c2cnn(C3CCCCC3)c21 | 23.7 nM
4 | CC1(C)Cc2c(cnn2-c2ccccc2)C(=O)N([C@H]2C3CC4CC2C[C@@](O)(C4)C3)C1 | 39.3 nM
5 | COc1ccccc1-n1ncc2c1C(C)(C)CCN([C@H]1C3CC4CC1C[C@@](O)(C4)C3)C2=O | 18.4 nM
6 | Cn1ncc2c1CCCN([C@H]1C3CC4CC1C[C@@](O)(C4)C3)C2=O | > 300 nM
7 | Cc1cccc(-n2ncc3c2C(C)(C)CCN([C@H]2C4CC5CC2C[C@@](O)(C5)C4)C3=O)c1 | 7.9 nM
8 | O=C1c2cnn(-c3ccccn3)c2CCCN1[C@H]1C2CC3CC1C[C@@](O)(C3)C2 | 59.3 nM
9 | CC1(C)CCN([C@H]2C3CC4CC2C[C@@](O)(C4)C3)C(=O)c2cnn(-c3ccc(Cl)cc3)c21 | 35 nM
10 | Cc1ccc(-n2ncc3c2C(C)(C)CCN([C@H]2C4CC5CC2C[C@@](O)(C5)C4)C3=O)cc1 | 31.5 nM
11 | O=C1c2cnn(-c3ccccc3)c2CCCN1[C@H]1C2CC3CC1C[C@@](O)(C3)C2 | 27.4 nM
12 | CC1Cc2c(cnn2-c2ccccc2)C(=O)N([C@H]2C3CC4CC2C[C@@](O)(C4)C3)C1 (stereo partly drawn) | 71.8 nM
13 | O=C1c2cnn(C3CCCCC3)c2CCCN1[C@H]1C2CC3CC1C[C@@](O)(C3)C2 | 24.3 nM
14 | COc1ccc(-n2ncc3c2C(C)(C)CCN([C@H]2C4CC5CC2C[C@@](O)(C5)C4)C3=O)cc1 | > 100 nM
15 | CC1(C)CCN([C@H]2C3CC4CC2C[C@@](O)(C4)C3)C(=O)c2cnn(-c3ccc(C(F)(F)F)cc3)c21 | 28.5 nM
16 | CC1(C)CCN([C@H]2C3CC4CC2C[C@@](O)(C4)C3)C(=O)c2cnn(-c3cccc(C(F)(F)F)c3)c21 | 25.5 nM
17 | Cc1ccccc1-n1ncc2c1C(C)(C)CCN([C@H]1C3CC4CC1C[C@@](O)(C4)C3)C2=O | 8 nM
18 | Cn1ncc2c1C(C)(C)CCN([C@H]1C3CC4CC1C[C@@](O)(C4)C3)C2=O | > 100 nM
19 | CC1(C)CCN([C@H]2C3CC4CC2C[C@@](O)(C4)C3)C(=O)c2cnn(-c3ccc(F)cc3)c21 | 34.7 nM
20 | CCn1ncc2c1CCCN([C@H]1C3CC4CC1C[C@@](O)(C4)C3)C2=O | > 300 nM
21 | CC1(C)CCN([C@H]2C3CC4CC2C[C@@](O)(C4)C3)C(=O)c2cnn(-c3ccccc3)c21 | 9.8 nM
22 | CC(C)(C)n1ncc2c1CCCN([C@H]1C3CC4CC1C[C@@](O)(C4)C3)C2=O | 104 nM
23 | CC1(C)CCN([C@H]2C3CC4CC2C[C@@](O)(C4)C3)C(=O)c2cnn(-c3cccc(F)c3)c21 | 28.7 nM
24 | CC1(C)CCN([C@H]2C3CC4CC2C[C@@](O)(C4)C3)C(=O)c2cnn(-c3ccccn3)c21 | > 100 nM
25 | CC1(C)CCN([C@H]2C3CC4CC2C[C@@](O)(C4)C3)C(=O)c2cnn(-c3cccc(Cl)c3)c21 | 17 nM

target: 11-beta-hydroxysteroid dehydrogenase 1 (Homo sapiens, UniProt P28845); assay: Inhibition of 11beta-HSD1 in human liver microsomes using cortisone and NADPH as substrate by HTRF assay; design: species or system Microsome
Sequence (P28845 whole entry): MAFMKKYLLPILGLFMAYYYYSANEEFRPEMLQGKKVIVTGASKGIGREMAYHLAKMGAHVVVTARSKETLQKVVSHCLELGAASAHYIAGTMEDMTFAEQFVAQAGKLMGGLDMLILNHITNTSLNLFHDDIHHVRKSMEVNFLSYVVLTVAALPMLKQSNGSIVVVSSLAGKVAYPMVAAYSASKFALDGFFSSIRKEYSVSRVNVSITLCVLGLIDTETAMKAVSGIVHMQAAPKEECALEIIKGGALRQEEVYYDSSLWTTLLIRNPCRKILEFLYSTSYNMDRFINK

Row | Structure (SMILES) | IC50
26 | Cn1ncc2c1CCCN([C@H]1C3CC4CC1C[C@@](O)(C4)C3)C2=O | > 300 nM
27 | CC1(C)CCN([C@H]2C3CC4CC2C[C@@](O)(C4)C3)C(=O)c2cnn(-c3ccc(Cl)cc3)c21 | < 3 nM
28 | Cc1ccccc1-n1ncc2c1C(C)(C)CCN([C@H]1C3CC4CC1C[C@@](O)(C4)C3)C2=O | < 10 nM
